Test results reported in ChEMBL document CHEMBL3585294, “LAT Transport Inhibitors from Pittosporum venulosum Identified by NMR Fingerprint Analysis” (J Nat Prod, 2015).
pIC50: −log10 of the molar value.

Test: Inhibition of LAT in human LNCAP cells assessed as inhibition of [3H]-L-leucine transport by liquid scintillation counting analysis
Type: cell-based

| Structure (SMILES) | pIC50 |
| --- | --- |
| NC1(C(=O)O)CC2CCC1C2 (stereo not given) | 2.39 |
| CC(=O)O[C@H]1[C@H](OC(C)(C)[C@H]2CC=C(C)CC2)O[C@H](C)[C@H](O)[C@@H]1OC(=O)C=C(C)C | 5.09 |
| C/C=C(/C)C(=O)O[C@H]1[C@@H](O)[C@@H](C)O[C@@H](OC(C)(C)[C@H]2CC=C(C)CC2)[C@@H]1OC(C)=O | 4.54 |
| CC[C@H](C)C(=O)O[C@H]1[C@@H](O)[C@@H](C)O[C@@H](OC(C)(C)[C@H]2CC=C(C)CC2)[C@@H]1OC(C)=O | 4.94 |
| CC[C@H](C)C(=O)O[C@@H]1[C@H](O)[C@@H](OC(C)=O)[C@H](OC(C)(C)[C@H]2CC=C(C)CC2)O[C@@H]1C | 4.40 |
